{
  "source": "patent US11324768B2",
  "about": "“Applications of triacetyl-3-hydroxyl phenyl adenosine in treating vascular inflammations or improving vascular endothelium functions” (priority 2016, dated 2022)",
  "key": {"thoracic aorta": {"test_system": "thoracic aorta", "test": "Endothelial function of thoracic aorta in ApoE−/− mice (vascular ring, Ach / SNP relaxation)", "type": "in vivo", "description": "After 1 week of adaptive feeding, the animals were randomly divided into 7 groups according to body weight: normal control group, model control group A769662 (30 mg/kg) administration group, metformin (260 mg/kg) administration group, IMM-H007 low, medium, and high administration groups (50, 100, 200 mg/kg), 8 in each group, and were given a high-fat diet (78.6% basal diet, 10% lard, 1.0% cholesterol, 10% egg yolk powder, and 0.4% bile salt), and simultaneously administered intragastrically at a dose of 0.1 ml/10 g body weight, and were continuously administered and fed for 8 weeks to establish an atherosclerosis model.\nThe mice were anesthetized. The thoracic aorta was quickly taken, after carefully stripping the surrounding tissue, was cut into a vascular ring with a length of about 3 mm. The vascular ring was carefully hung on a tonotransducer, given an initial tension of 0.5 g and equilibrated for 90 minutes or more. During the equilibration process, the fluid was replaced every 20 minutes, aeration was maintained and the temperature was maintained at 37° C. The vascular ring was equilibrated for about 1 hour and stimulated twice with saturated KCl (60 mM) to detect whether the blood vessel was active. After vasoconstriction was stabilized, KCl was washed away immediately. After the last replacement of the fluid, the vascular ring was equilibrated for 20 minutes, given phenylephrine 1 μM to stimulate vasoconstriction, and after vasoconstriction was stabilized, it was cumulatively administered with acetylcholine (Ach, 1×10^−10 to […]) and sodium nitroprusside (SNP, 10^−10 to 10^−4 M) to record the vasodilation curve. Vasodilation rate=[PE-induced vascular tone (g)-vascular tension after addition of ACh (g)][…][PE contraction-induced tension (g)-basal vascular tone (g)]×100%."}, "mesenteric arterioles": {"test_system": "mesenteric arterioles", "test": "Microvascular endothelial function in Ob/Ob obese mice (mesenteric arterioles, Ach / SNP relaxation)", "type": "in vivo", "description": "PSS and KPSS solutions were configured according to the instructions and used at the same time of the day. The PSS solution was taken out before the start of the experiment and pre-oxygenated for about 20 min. The ApoE−/− mice, which were fed with high-fat and simultaneously administered for 10 weeks, were anesthetized with pentobarbital sodium. The mice were supine and fixed. The abdominal cavity was opened along the median line. The mesenteric vascular bed was isolated and placed in the pre-oxygenated 20-minute PSS buffer. Under a stereomicroscope, a third-order mesenteric artery with a length of about 3 mm was carefully isolated. Firstly, the blood vessel was fixed to a P1 glass cannula and the coil was tightened. Note: the proximal end should be connected to the P1 end, and the P2 end vessel should be fixed and the coil should be tightened. The Chamber was placed on a objective table of the microscope and the data connection between Chamber and Interface was checked. The bath cover was covered and the oxygen was introduced, to exhaust air in the pipeline. The blood vessel image was found under the microscope and then the microscope was turned to camera mode. (The knob on the side of the eyepiece was rotated to graph.) MyoVIEW software was opened. The Camera window Capture was clicked to display the blood vessel image. The equilibration of blood vessels slowly rose from 10 mmHg to 60 mmHg, and each step was 300 s. After the equilibration procedure was completed, the solution in the bath was drained. Blood vessels were stimulated (10 ml) for 2 min using a 37° C. pre-heated KPSS solution, and changes in vasoconstriction were observed, and the blood vessels were then eluted using the PSS solution to baseline. The blood vessels were equilibrated at 60 mmHg 37° C. for 45 minutes, during which time the fluid was replaced every 20 minutes. The experiment was started: observing the vasodilatory response induced by 10^−10 to 10^−5 M Ach after pre-contraction with 2 μM phenylephrine, to evaluate the effect of the drugs on the vascular endothelial function. At the end of the experiment, the fresh 37° C. pre-heated PSS buffer was replaced for equilibration for 30 min, and the 10^−10M to 10^−3 M sodium nitroprusside were given to induce vasodilatory response after pre-contraction with 2 μM phenylephrine, to evaluate the effect of the drugs on vascular smooth muscle function. LD1 was the diameter of blood vessel after relaxation by administration of different concentrations of ACh or sodium nitroprusside, LD2 was the diameter of blood vessels after pre-contraction with phenylephrine, and LD3 represented the maximum diastolic diameter of blood vessel without any stimulant.\nThe relaxation response to Ach and sodium nitroprusside after pre-contraction with phenylephrine was expressed as the percentage increase in the vascular diameter: % Relaxation=(LD1−LD2)/(LD3−LD2)×100.\n[…] The changes of food intake and body weight were recorded, and routine biochemical indicators such as blood lipids and blood glucose, etc. were measured. After 9 weeks, 3 animals were taken from each group and the mesenteric arterioles were taken for measurement of vascular endothelial function in the same manner as in Example 2."}},
  "data": [
    {"smiles": "CC(=O)OCC1OC(n2cnc3c(Nc4cccc(O)c4)ncnc32)C(OC(C)=O)C1OC(C)=O", "note": "(stereo not drawn) [IMM-H007, 2′,3,′ 5′-triacetyl-N^6(3-hydroxyphenyl)adenosine]", "values": [
      {"measurement": "sodium nitroprusside endothelium-independent relaxation of aortic vessel", "setting": "thoracic aorta; 50 mg/kg, 1 × 10^−4 M SNP", "value": "97.8 ± 4.9", "unit": "%"},
      {"measurement": "acetylcholine endothelium-dependent relaxation of aortic vessel", "setting": "thoracic aorta; 50 mg/kg, 1 × 10^−5 M Ach", "value": "91.0 ± 2.3", "unit": "%"},
      {"measurement": "sodium nitroprusside endothelium-independent relaxation of aortic vessel", "setting": "thoracic aorta; 50 mg/kg, 1 × 10^−5 M SNP", "value": "89.4 ± 6.8", "unit": "%"},
      {"measurement": "acetylcholine endothelium-dependent relaxation of aortic vessel", "setting": "thoracic aorta; 50 mg/kg, 1 × 10^−6 M Ach", "value": "67.5 ± 11.0", "unit": "%"},
      {"measurement": "sodium nitroprusside endothelium-independent relaxation of aortic vessel", "setting": "thoracic aorta; 50 mg/kg, 1 × 10^−6 M SNP", "value": "87.2 ± 10.1", "unit": "%"},
      {"measurement": "acetylcholine endothelium-dependent relaxation of aortic vessel", "setting": "thoracic aorta; 50 mg/kg, 1 × 10^−7 M Ach", "value": "54.1 ± 18.8", "unit": "%"},
      {"measurement": "sodium nitroprusside endothelium-independent relaxation of aortic vessel", "setting": "thoracic aorta; 50 mg/kg, 1 × 10^−7 M SNP", "value": "68.3 ± 20.5", "unit": "%"},
      {"measurement": "acetylcholine endothelium-dependent relaxation of aortic vessel", "setting": "thoracic aorta; 50 mg/kg, 1 × 10^−8 M Ach", "value": "39.2 ± 14.0", "unit": "%"},
      {"measurement": "sodium nitroprusside endothelium-independent relaxation of aortic vessel", "setting": "thoracic aorta; 50 mg/kg, 1 × 10^−8 M SNP", "value": "58.4 ± 13.8", "unit": "%"},
      {"measurement": "acetylcholine endothelium-dependent relaxation of aortic vessel", "setting": "thoracic aorta; 50 mg/kg, 1 × 10^−9 M Ach", "value": "29.3 ± 11.2", "unit": "%"},
      {"measurement": "sodium nitroprusside endothelium-independent relaxation of aortic vessel", "setting": "thoracic aorta; 50 mg/kg, 1 × 10^−9 M SNP", "value": "43.1 ± 24.6", "unit": "%"},
      {"measurement": "acetylcholine endothelium-dependent relaxation of aortic vessel", "setting": "thoracic aorta; 50 mg/kg, 1 × 10^−10 M Ach", "value": "11.6 ± 7.0", "unit": "%"},
      {"measurement": "sodium nitroprusside endothelium-independent relaxation of aortic vessel", "setting": "thoracic aorta; 50 mg/kg, 1 × 10^−10 M SNP", "value": "18.0 ± 16.3", "unit": "%"},
      {"measurement": "acetylcholine endothelium-dependent relaxation of aortic caused by high fat", "setting": "thoracic aorta; 50 mg/kg, compared with the model control group", "value": "significantly improve"},
      {"measurement": "sodium nitroprusside endothelium-independent relaxation of aortic vessel", "setting": "thoracic aorta; 200 mg/kg, 1 × 10^−4 M SNP", "value": "97.9 ± 10.8", "unit": "%"},
      {"measurement": "acetylcholine endothelium-dependent relaxation of aortic vessel", "setting": "thoracic aorta; 200 mg/kg, 1 × 10^−5 M Ach", "value": "97.8 ± 8.2", "unit": "%"},
      {"measurement": "sodium nitroprusside endothelium-independent relaxation of aortic vessel", "setting": "thoracic aorta; 200 mg/kg, 1 × 10^−5 M SNP", "value": "95.4 ± 8.5", "unit": "%"},
      {"measurement": "acetylcholine endothelium-dependent relaxation of aortic vessel", "setting": "thoracic aorta; 200 mg/kg, 1 × 10^−6 M Ach", "value": "87.4 ± 10.9", "unit": "%"},
      {"measurement": "sodium nitroprusside endothelium-independent relaxation of aortic vessel", "setting": "thoracic aorta; 200 mg/kg, 1 × 10^−6 M SNP", "value": "94.1 ± 20.6", "unit": "%"},
      {"measurement": "acetylcholine endothelium-dependent relaxation of aortic vessel", "setting": "thoracic aorta; 200 mg/kg, 1 × 10^−7 M Ach", "value": "64.2 ± 17.7", "unit": "%"},
      {"measurement": "sodium nitroprusside endothelium-independent relaxation of aortic vessel", "setting": "thoracic aorta; 200 mg/kg, 1 × 10^−7 M SNP", "value": "73.6 ± 23.3", "unit": "%"},
      {"measurement": "acetylcholine endothelium-dependent relaxation of aortic vessel", "setting": "thoracic aorta; 200 mg/kg, 1 × 10^−8 M Ach", "value": "47.6 ± 22.5", "unit": "%"},
      {"measurement": "sodium nitroprusside endothelium-independent relaxation of aortic vessel", "setting": "thoracic aorta; 200 mg/kg, 1 × 10^−8 M SNP", "value": "62.3 ± 22.7", "unit": "%"},
      {"measurement": "acetylcholine endothelium-dependent relaxation of aortic vessel", "setting": "thoracic aorta; 200 mg/kg, 1 × 10^−9 M Ach", "value": "31.4 ± 18.5", "unit": "%"},
      {"measurement": "sodium nitroprusside endothelium-independent relaxation of aortic vessel", "setting": "thoracic aorta; 200 mg/kg, 1 × 10^−9 M SNP", "value": "30.5 ± 20.8", "unit": "%"},
      {"measurement": "acetylcholine endothelium-dependent relaxation of aortic vessel", "setting": "thoracic aorta; 200 mg/kg, 1 × 10^−10 M Ach", "value": "9.4 ± 3.9", "unit": "%"},
      {"measurement": "sodium nitroprusside endothelium-independent relaxation of aortic vessel", "setting": "thoracic aorta; 200 mg/kg, 1 × 10^−10 M SNP", "value": "12.4 ± 8.4", "unit": "%"},
      {"measurement": "microvascular endothelial function", "setting": "mesenteric arterioles; 400 mg/kg, 9 weeks", "value": "improve"},
      {"measurement": "acetylcholine endothelium-dependent relaxation of microvascular", "setting": "mesenteric arterioles; 400 mg/kg, 1 × 10^−5 M Ach", "value": "93.6 ± 1.1", "unit": "%"},
      {"measurement": "acetylcholine endothelium-dependent relaxation of microvascular", "setting": "mesenteric arterioles; 400 mg/kg, 1 × 10^−6 M Ach", "value": "82.1 ± 9.3", "unit": "%"},
      {"measurement": "acetylcholine endothelium-dependent relaxation of microvascular", "setting": "mesenteric arterioles; 400 mg/kg, 1 × 10^−7 M Ach", "value": "71.7 ± 13.5", "unit": "%"},
      {"measurement": "acetylcholine endothelium-dependent relaxation of microvascular", "setting": "mesenteric arterioles; 400 mg/kg, 1 × 10^−8 M Ach", "value": "57.6 ± 15.8", "unit": "%"},
      {"measurement": "acetylcholine endothelium-dependent relaxation of microvascular", "setting": "mesenteric arterioles; 400 mg/kg, 1 × 10^−9 M Ach", "value": "32.3 ± 18.9", "unit": "%"},
      {"measurement": "acetylcholine endothelium-dependent relaxation of microvascular", "setting": "mesenteric arterioles; 400 mg/kg, 1 × 10^−10 M Ach", "value": "0.96 ± 0.85", "unit": "%"},
      {"measurement": "sodium nitroprusside endothelium-independent relaxation of microvascular", "setting": "mesenteric arterioles; 1 × 10^−3 M SNP", "value": "95.0 ± 3.8", "unit": "%"},
      {"measurement": "sodium nitroprusside endothelium-independent relaxation of microvascular", "setting": "mesenteric arterioles; 1 × 10^−4 M SNP", "value": "94.3 ± 2.3", "unit": "%"},
      {"measurement": "sodium nitroprusside endothelium-independent relaxation of microvascular", "setting": "mesenteric arterioles; 1 × 10^−5 M SNP", "value": "91.4 ± 2.5", "unit": "%"},
      {"measurement": "sodium nitroprusside endothelium-independent relaxation of microvascular", "setting": "mesenteric arterioles; 1 × 10^−6 M SNP", "value": "80.8 ± 6.9", "unit": "%"},
      {"measurement": "sodium nitroprusside endothelium-independent relaxation of microvascular", "setting": "mesenteric arterioles; 1 × 10^−7 M SNP", "value": "68.3 ± 5.1", "unit": "%"},
      {"measurement": "sodium nitroprusside endothelium-independent relaxation of microvascular", "setting": "mesenteric arterioles; 1 × 10^−8 M SNP", "value": "58.9 ± 3.2", "unit": "%"},
      {"measurement": "sodium nitroprusside endothelium-independent relaxation of microvascular", "setting": "mesenteric arterioles; 1 × 10^−9 M SNP", "value": "43.5 ± 4.1", "unit": "%"},
      {"measurement": "sodium nitroprusside endothelium-independent relaxation of microvascular", "setting": "mesenteric arterioles; 1 × 10^−10 M SNP", "value": "16.9 ± 6.3", "unit": "%"}
    ]}
  ]
}
